Source: the supplement of paper PMC8617591

How the values were obtained:
[1] = tested on: Mycobacterium tuberculosis Erdman (autoluminescent); assay: total FIC50 (Loewe) at 50% inhibition, three-drug combination (log2); higher = more antagonistic
Experimental: (§1)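 DiaMOND equipotent three-drug combination dose responses (10 doses, 1.5- or 2-fold spacing, centred on IC90) against autoluminescent M. tuberculosis Erdman in 8 in vitro models. Read-out is OD600, or luminescence for the intracellular and dormancy models, normalised to untreated wells. Hill-fit Einf, AUC25 and GRinf are potency metrics; FIC50 and FIC90 are total Loewe fractional inhibitory concentrations as log2 (negative = synergy).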

[2] = tested on: Mycobacterium tuberculosis Erdman (autoluminescent); assay: total FIC90 (Loewe) at 90% inhibition, three-drug combination (log2); higher = more antagonistic
Experimental: as §1

[3] = tested on: Mycobacterium tuberculosis Erdman (autoluminescent); assay: Einf, fitted maximum growth inhibition of three-drug combination (fraction); higher = stronger maximal inhibition
Experimental: as §1

[4] = tested on: Mycobacterium tuberculosis Erdman (autoluminescent); assay: AUC25, normalised area under dose response up to IC25 (three-drug combination) (fraction (0-1)); higher = more potent at low dose
Experimental: as §1

[5] = tested on: Mycobacterium tuberculosis Erdman (autoluminescent); assay: GRinf, maximum normalised growth rate inhibition (three-drug combination) (unitless (-1 to 1)); higher = less effect (negative = killing)
Experimental: as §1

COc1nc2ccc(Br)cc2cc1[C@@H](c1ccccc1)[C@@](O)(CCN(C)C)c1cccc2ccccc12 [bedaquiline] + CC(C)/N=c1\cc2n(-c3ccc(Cl)cc3)c3ccccc3nc-2cc1Nc1ccc(Cl)cc1 [clofazimine] + CC[C@@H](CO)NCCN[C@@H](CC)CO [ethambutol]
Conditions	AUC25, [4]	Einf, [3]	GRinf, [5]	total FIC50, [1]	total FIC90, [2]
in vitro model: acidic pH 5.7, time point: constant (~7 days, model-specific)	0.0844	0.852	-0.216	0.516	–
in vitro model: acidic pH 5.7, time point: terminal (~4-5 doublings, model-specific)	0.0687	0.969	-0.273	0.534	0.129
in vitro model: intracellular J774, time point: constant = terminal	–	0.992	-0.72	–	-0.364

Conditions	AUC25, [4]	Einf, [3]	GRinf, [5]	total FIC50, [1]	total FIC90, [2]
in vitro model: butyrate, time point: constant (~7 days, model-specific)	0.0618	0.945	-0.0931	0.078	–
in vitro model: butyrate, time point: terminal (~4-5 doublings, model-specific)	0.0476	0.976	-0.104	0.111	-0.667
in vitro model: cholesterol 0.05 mM, time point: constant (~7 days, model-specific)	0.0892	0.762	-0.109	0.0426	–
in vitro model: cholesterol 0.05 mM, time point: terminal (~4-5 doublings, model-specific)	0.117	0.937	-0.32	0.424	–
in vitro model: cholesterol-high 0.2 mM, time point: constant (~7 days, model-specific)	0.0568	0.996	-0.788	0.329	–
in vitro model: cholesterol-high 0.2 mM, time point: terminal (~4-5 doublings, model-specific)	0.0708	1	-0.736	0.543	0.542
in vitro model: dormancy (butyrate + nitrate, low O2), time point: constant (~7 days, model-specific)	0.102	0.82	0.429	0.788	–
in vitro model: dormancy (butyrate + nitrate, low O2), time point: terminal (~4-5 doublings, model-specific)	0.0994	0.991	-0.239	0.238	0.0433
in vitro model: standard 7H9 glycerol, time point: constant = terminal	0.0939	0.965	-0.0889	-0.254	–
in vitro model: valerate, time point: constant (~7 days, model-specific)	0.107	0.947	-0.0899	0.469	–
in vitro model: valerate, time point: terminal (~4-5 doublings, model-specific)	0.0804	0.962	-0.0795	0.16	-0.225

COc1nc2ccc(Br)cc2cc1[C@@H](c1ccccc1)[C@@](O)(CCN(C)C)c1cccc2ccccc12 [bedaquiline] + CC(C)/N=c1\cc2n(-c3ccc(Cl)cc3)c3ccccc3nc-2cc1Nc1ccc(Cl)cc1 [clofazimine] + CO[C@H]1/C=C/O[C@@]2(C)Oc3c(C)c(O)c4c(O)c(c(/C=N/N5CCN(C6CCCC6)CC5)c(O)c4c3C2=O)NC(=O)/C(C)=C\C=C\[C@H](C)[C@H](O)[C@@H](C)[C@@H](O)[C@@H](C)[C@H](OC(C)=O)[C@@H]1C [rifapentine]
Conditions	AUC25, [4]	Einf, [3]	GRinf, [5]	total FIC50, [1]	total FIC90, [2]
in vitro model: acidic pH 5.7, time point: constant (~7 days, model-specific)	0.0909	0.924	-0.309	0.793	–
in vitro model: acidic pH 5.7, time point: terminal (~4-5 doublings, model-specific)	0.0906	0.997	-0.284	0.66	0.55
in vitro model: intracellular J774, time point: constant = terminal	–	0.951	-0.199	–	-0.0198

Conditions	AUC25, [4]	Einf, [3]	GRinf, [5]	total FIC50, [1]	total FIC90, [2]
in vitro model: butyrate, time point: constant (~7 days, model-specific)	0.0667	0.948	-0.116	0.174	-0.813
in vitro model: butyrate, time point: terminal (~4-5 doublings, model-specific)	0.0586	0.983	-0.124	0.264	-0.221
in vitro model: cholesterol 0.05 mM, time point: constant (~7 days, model-specific)	0.0889	0.716	-0.179	-0.467	–
in vitro model: cholesterol 0.05 mM, time point: terminal (~4-5 doublings, model-specific)	0.085	0.926	-0.231	0.869	-0.165
in vitro model: cholesterol-high 0.2 mM, time point: constant (~7 days, model-specific)	0.0509	0.965	-0.378	-0.0878	-0.883
in vitro model: cholesterol-high 0.2 mM, time point: terminal (~4-5 doublings, model-specific)	0.0654	1	-0.595	0.507	-0.0793
in vitro model: dormancy (butyrate + nitrate, low O2), time point: constant (~7 days, model-specific)	0.0857	0.937	0.218	-0.0609	-0.282
in vitro model: dormancy (butyrate + nitrate, low O2), time point: terminal (~4-5 doublings, model-specific)	0.0766	0.997	-0.206	-0.242	-0.206
in vitro model: standard 7H9 glycerol, time point: constant = terminal	0.079	0.959	-0.0819	-0.0863	-0.842
in vitro model: valerate, time point: constant (~7 days, model-specific)	0.0956	0.895	-0.0953	0.292	–
in vitro model: valerate, time point: terminal (~4-5 doublings, model-specific)	0.0686	0.95	-0.0333	0.461	0.966

COc1nc2ccc(Br)cc2cc1[C@@H](c1ccccc1)[C@@](O)(CCN(C)C)c1cccc2ccccc12 [bedaquiline] + CC(C)/N=c1\cc2n(-c3ccc(Cl)cc3)c3ccccc3nc-2cc1Nc1ccc(Cl)cc1 [clofazimine] + CO[C@H]1/C=C/O[C@@]2(C)Oc3c(C)c(O)c4c(O)c(c(/C=N/N5CCN(C)CC5)c(O)c4c3C2=O)NC(=O)/C(C)=C\C=C\[C@H](C)[C@H](O)[C@@H](C)[C@@H](O)[C@@H](C)[C@H](OC(C)=O)[C@@H]1C [rifampicin]
Conditions	AUC25, [4]	Einf, [3]	GRinf, [5]	total FIC50, [1]	total FIC90, [2]
in vitro model: acidic pH 5.7, time point: constant (~7 days, model-specific)	0.0895	0.926	-0.41	0.927	–
in vitro model: acidic pH 5.7, time point: terminal (~4-5 doublings, model-specific)	0.0837	0.992	-0.332	0.816	0.52
in vitro model: intracellular J774, time point: constant = terminal	–	0.965	-0.213	–	0.287

Conditions	AUC25, [4]	Einf, [3]	GRinf, [5]	total FIC50, [1]	total FIC90, [2]
in vitro model: butyrate, time point: constant (~7 days, model-specific)	0.0821	0.954	-0.113	0.164	-0.692
in vitro model: butyrate, time point: terminal (~4-5 doublings, model-specific)	0.0695	0.983	-0.115	0.163	-0.325
in vitro model: cholesterol 0.05 mM, time point: constant (~7 days, model-specific)	0.0702	0.714	-0.146	-0.919	–
in vitro model: cholesterol 0.05 mM, time point: terminal (~4-5 doublings, model-specific)	0.0755	0.925	-0.226	0.904	-0.861
in vitro model: cholesterol-high 0.2 mM, time point: constant (~7 days, model-specific)	0.0563	0.933	-0.277	-0.143	-0.728
in vitro model: cholesterol-high 0.2 mM, time point: terminal (~4-5 doublings, model-specific)	0.0498	0.999	-0.582	0.757	-0.216
in vitro model: dormancy (butyrate + nitrate, low O2), time point: constant (~7 days, model-specific)	0.0659	0.906	0.222	-0.0697	-0.643
in vitro model: dormancy (butyrate + nitrate, low O2), time point: terminal (~4-5 doublings, model-specific)	0.0651	0.994	-0.191	-0.41	-0.344
in vitro model: standard 7H9 glycerol, time point: constant = terminal	0.0883	0.959	-0.1	-0.172	-1.01
in vitro model: valerate, time point: constant (~7 days, model-specific)	0.0872	0.88	-0.0295	0.776	–
in vitro model: valerate, time point: terminal (~4-5 doublings, model-specific)	0.0594	0.936	-0.0101	0.627	0.54
